System: D2/3R
Test: Kinetic analysis of PET data (1TCM, 2TCM, Logan, SRTM);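 for 2TCM BPND change relative to control: Raclopride 1 mg/kg intravenous pretreatment versus saline controls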;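 for SRTM BPND change relative to control: Raclopride 1 mg/kg intravenous pretreatment versus saline controls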
Format: in vivo, Sprague-Dawley rats
Design: key to SRTM BPND / 1TCM BPND / 2TCM BPND (VT-based): BPND = VT(target)/VT(cerebellum) − 1 (or SRTM, cerebellum reference); SRTM BPND change relative to control / 1TCM BPND change relative to control / 2TCM BPND change relative to control / Logan BPND change relative to control: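 Raclopride 1 mg/kg intravenous pretreatment versus saline controls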; 1TCM VT / 2TCM VT: unit not given here
Description: Kinetic analysis is described using the nomenclature proposed by Innis et al.. ROI TACs of [^18F]FEt-AMC13 were analyzed with one-tissue and two-tissue compartmental models of reversible binding (1TCM and 2TCM, respectively) to obtain individual rate constants. From these, the regional distribution volumes (VT) were calculated and compared to those obtained with Logan graphical analysis. Binding potentials (BPND) were calculated from the distribution ratios as VT (target) / VT (cerebellum) – 1, or estimated with the simplified reference tissue model (SRTM) using the cerebellum as reference region.
Metabolite-corrected plasma-derived arterial input function and whole blood time-activity curve were used for Logan, 1TCM, and 2TCM analyses. Fractional cerebral blood volume was set to 3.6 % [27]. For one rat in the raclopride-treated group, no input curves could be obtained; therefore, its PET data were only analyzed with SRTM.
Degree of D2/3R-specific binding of the tracers was characterized by BPND (as given above) or the specific binding ratio (SBR) given as target region activity/cerebellar activity - 1. Both were calculated under control conditions and in response to the raclopride challenge.

[1] = Hypothalamus, raclopride, listed as [18F]FEt-AMC13
[2] = Olfactory bulbs, raclopride, listed as [18F]FEt-AMC13
[3] = Pituitary, raclopride, listed as [18F]FEt-AMC13
[4] = Striatum, raclopride, listed as [18F]FEt-AMC13
[5] = Thalamus, raclopride, listed as [18F]FEt-AMC13

## Oc1ccc2c(c1)O[C@@H](CNCc1ccc(OCC[18F])cc1)CC2 [[^18F]FEt-AMC13]
Hypothalamus, control rat D
  2TCM k4: 0.09 ± 0.01 min⁻¹
Hypothalamus, raclopride
  1TCM BPND: 0.22±0.04
  1TCM BPND change relative to control: -14%
  1TCM VT: 5.38±0.38
  2TCM BPND (VT-based): 0.18 ± 0.06
  2TCM BPND change relative to control: −19%
  2TCM VT: 5.83±0.34
  Logan BPND: 0.16±0.04
  Logan BPND change relative to control: -25%
  Logan VT: 5.76±0.26
  SRTM BPND: 0.16 ± 0.04
  SRTM BPND change relative to control: −23%
[1]
  2TCM BPND (VT-based): 0.18±0.06
  2TCM BPND change relative to control: -19%
  SRTM BPND: 0.16±0.04
  SRTM BPND change relative to control: –23%
Olfactory bulbs, control
  1TCM BPND: 0.07±0.16
  1TCM VT: 4.99±0.62
  2TCM BPND (VT-based): 0.08 ± 0.13
  2TCM VT: 5.45±0.52
  Logan BPND: 0.12±0.12
  Logan VT: 5.64±0.57
  SRTM BPND: 0.10 ± 0.13
Olfactory bulbs, control rat A
  1TCM K1: 0.55 ± 0.05 mL/g/min
  1TCM k2: 0.12 ± 0.02 min⁻¹
  2TCM K1: 3.58 ± 1.65 mL/g/min
  2TCM k2: 9.75 ± 3.75 min⁻¹
  2TCM k3: 1.20 ± 2.96 min⁻¹
  2TCM k4: 0.09 ± 7.03 min⁻¹
Olfactory bulbs, control rat B
  1TCM K1: 0.49 ± 0.02 mL/g/min
  1TCM k2: 0.08 ± 0.01 min⁻¹
  2TCM K1: 0.63 ± 0.07 mL/g/min
  2TCM k2: 0.47 ± 0.34 min⁻¹
  2TCM k3: 0.69 ± 0.56 min⁻¹
  2TCM k4: 0.20 ± 0.04 min⁻¹
Olfactory bulbs, control rat C
  1TCM K1: 0.44 ± 0.01 mL/g/min
  1TCM k2: 0.09 ± 0.005 min⁻¹
  2TCM K1: 0.59 ± 0.10 mL/g/min
  2TCM k2: 0.68 ± 0.93 min⁻¹
  2TCM k3: 1.07 ± 3.21 min⁻¹
  2TCM k4: 0.23 ± 3.75 min⁻¹
Olfactory bulbs, control rat D
  1TCM K1: 0.50 ± 0.03 mL/g/min
  1TCM k2: 0.10 ± 0.01 min⁻¹
  2TCM K1: 1.08 ± 0.20 mL/g/min
  2TCM k2: 1.82 ± 0.90 min⁻¹
  2TCM k3: 0.92 ± 0.31 min⁻¹
  2TCM k4: 0.11 ± 0.01 min⁻¹
Olfactory bulbs, raclopride
  1TCM BPND: -0.02±0.03
  1TCM BPND change relative to control: -127%
  1TCM VT: 4.36±0.55
  2TCM BPND (VT-based): 0.01 ± 0.04
  2TCM BPND change relative to control: −88%
  2TCM VT: 5.02±0.61
  Logan BPND: 0.03±0.03
  Logan BPND change relative to control: -74%
  Logan VT: 5.14±0.43
  SRTM BPND: 0.11 ± 0.05
  SRTM BPND change relative to control: +10%
[2]
  2TCM BPND (VT-based): 0.01±0.04
  2TCM BPND change relative to control: -88%
  SRTM BPND: 0.11±0.05
Pituitary, control
  1TCM BPND: 0.32±0.05
  1TCM VT: 6.16±0.35
  2TCM BPND (VT-based): 0.36 ± 0.07
  2TCM VT: 6.89±0.32
  Logan BPND: 0.42±0.05
  Logan VT: 7.15±0.49
  SRTM BPND: 0.71 ± 0.32
Pituitary, control rat A
  1TCM K1: 0.52 ± 0.05 mL/g/min
  1TCM k2: 0.08 ± 0.02 min⁻¹
  2TCM K1: 6.16 ± 6.57 mL/g/min
  2TCM k2: 16.8 ± 16.5 min⁻¹
  2TCM k3: 1.11 ± 15.04 min⁻¹
  2TCM k4: 0.06 ± 22.82 min⁻¹
Pituitary, control rat B
  1TCM K1: 0.63 ± 0.04 mL/g/min
  1TCM k2: 0.10 ± 0.01 min⁻¹
  2TCM K1: 1.23 ± 0.31 mL/g/min
  2TCM k2: 1.62 ± 0.42 min⁻¹
  2TCM k3: 0.99 ± 1.42 min⁻¹
  2TCM k4: 0.12 ± 2.70 min⁻¹
Pituitary, control rat C
  1TCM K1: 0.52 ± 0.02 mL/g/min
  1TCM k2: 0.08 ± 0.01 min⁻¹
  2TCM K1: 0.97 ± 0.34 mL/g/min
  2TCM k2: 1.54 ± 0.73 min⁻¹
  2TCM k3: 1.23 ± 2.61 min⁻¹
  2TCM k4: 0.13 ± 4.28 min⁻¹
Pituitary, control rat D
  1TCM K1: 0.67 ± 0.05 mL/g/min
  1TCM k2: 0.12 ± 0.02 min⁻¹
  2TCM K1: 1.38 ± 0.24 mL/g/min
  2TCM k2: 1.48 ± 0.20 min⁻¹
  2TCM k3: 0.69 ± 0.58 min⁻¹
  2TCM k4: 0.11 ± 1.34 min⁻¹
Pituitary, raclopride
  1TCM BPND: 0.18±0.05
  1TCM BPND change relative to control: -38%
  1TCM VT: 5.33±0.88
  2TCM BPND change relative to control: −23%
  2TCM VT: 6.34±0.82
  Logan BPND change relative to control: -26%
  Logan VT: 6.53±0.44
  SRTM BPND: 0.55 ± 0.53
  SRTM BPND change relative to control: −22%
[3]
  2TCM BPND change relative to control: -23%
  SRTM BPND: 0.55±0.53
  SRTM BPND change relative to control: –22%
Striatum, control
  1TCM BPND: 0.63 ± 0.08
  1TCM VT: 7.60±0.64
  2TCM BPND (VT-based): 0.56 ± 0.05
  2TCM VT: 7.90±0.84
  Logan BPND: 0.52 ± 0.01
  Logan VT: 7.72±0.84
  SRTM BPND: 0.51 ± 0.02
Striatum, control rat A
  1TCM K1: 0.45 ± 0.03 mL/g/min
  1TCM k2: 0.05 ± 0.01 min⁻¹
  2TCM K1: 1.77 ± 0.62 mL/g/min
  2TCM k2: 4.95 ± 3.00 min⁻¹
  2TCM k3: 1.34 ± 0.29 min⁻¹
  2TCM k4: 0.05 ± 0.01 min⁻¹
Striatum, control rat B
  1TCM K1: 0.49 ± 0.02 mL/g/min
  1TCM k2: 0.06 ± 0.01 min⁻¹
  2TCM K1: 0.63 ± 0.14 mL/g/min
  2TCM k2: 0.48 ± 0.68 min⁻¹
  2TCM k3: 0.81 ± 1.13 min⁻¹
  2TCM k4: 0.17 ± 0.07 min⁻¹
Striatum, control rat C
  1TCM K1: 0.47 ± 0.02 mL/g/min
  1TCM k2: 0.07 ± 0.004 min⁻¹
  2TCM K1: 0.98 ± 0.85 mL/g/min
  2TCM k2: 3.47 ± 8.55 min⁻¹
  2TCM k3: 2.81 ± 3.01 min⁻¹
  2TCM k4: 0.11 ± 0.08 min⁻¹
Striatum, control rat D
  1TCM K1: 0.51 ± 0.02 mL/g/min
  1TCM k2: 0.07 ± 0.01 min⁻¹
  2TCM K1: 8.06 ± 30.34 mL/g/min
  2TCM k2: 58.0 ± 203.8 min⁻¹
  2TCM k3: 3.54 ± 188.40 min⁻¹
  2TCM k4: 0.07 ± 263.98 min⁻¹
Striatum, raclopride
  1TCM BPND: 0.51±0.06
  1TCM BPND change relative to control: -18%
  1TCM VT: 6.69±0.41
  2TCM BPND (VT-based): 0.41 ± 0.05
  2TCM BPND change relative to control: −27%
  2TCM VT: 6.97±0.39
  Logan BPND: 0.40±0.04
  Logan BPND change relative to control: -24%
  Logan VT: 6.97±0.32
  SRTM BPND: 0.38 ± 0.05
  SRTM BPND change relative to control: −26%
[4]
  2TCM BPND (VT-based): 0.41±0.05
  2TCM BPND change relative to control: -27%
  SRTM BPND: 0.38±0.05
  SRTM BPND change relative to control: –26%
Thalamus, control
  1TCM BPND: 0.38±0.06
  1TCM VT: 6.45±0.62
  2TCM BPND (VT-based): 0.33 ± 0.02
  2TCM VT: 6.75±0.62
  Logan BPND: 0.31±0.02
  Logan VT: 6.64±0.61
  SRTM BPND: 0.28 ± 0.06
Thalamus, control rat A
  1TCM K1: 0.44 ± 0.02 mL/g/min
  1TCM k2: 0.06 ± 0.01 min⁻¹
  2TCM K1: 14.0 ± 117.5 mL/g/min
  2TCM k2: 104 ± 848 min⁻¹
  2TCM k3: 3.05 ± 820.48 min⁻¹
  2TCM k4: 0.05 ± 961.03 min⁻¹
Thalamus, control rat B
  1TCM K1: 0.65 ± 0.03 mL/g/min
  1TCM k2: 0.10 ± 0.01 min⁻¹
  2TCM K1: 0.88 ± 0.12 mL/g/min
  2TCM k2: 0.58 ± 0.58 min⁻¹
  2TCM k3: 0.67 ± 1.63 min⁻¹
  2TCM k4: 0.19 ± 1.99 min⁻¹
Thalamus, control rat C
  1TCM K1: 0.55 ± 0.02 mL/g/min
  1TCM k2: 0.09 ± 0.01 min⁻¹
  2TCM K1: 0.71 ± 0.13 mL/g/min
  2TCM k2: 0.48 ± 0.97 min⁻¹
  2TCM k3: 0.76 ± 3.17 min⁻¹
  2TCM k4: 0.23 ± 3.61 min⁻¹
Thalamus, control rat D
  1TCM K1: 0.64 ± 0.03 mL/g/min
  1TCM k2: 0.11 ± 0.01 min⁻¹
  2TCM K1: 3.13 ± 3.18 mL/g/min
  2TCM k2: 12.3 ± 18.9 min⁻¹
  2TCM k3: 2.61 ± 0.96 min⁻¹
  2TCM k4: 0.11 ± 0.02 min⁻¹
Thalamus, raclopride
  1TCM BPND: 0.33±0.04
  1TCM BPND change relative to control: -12%
  1TCM VT: 5.93±0.71
  2TCM BPND (VT-based): 0.30 ± 0.01
  2TCM BPND change relative to control: −10%
  2TCM VT: 6.44±0.60
  Logan BPND: 0.28±0.005
  Logan BPND change relative to control: -10%
  Logan VT: 6.40±0.40
  SRTM BPND: 0.26 ± 0.02
  SRTM BPND change relative to control: −7%
[5]
  2TCM BPND (VT-based): 0.30±0.01
  2TCM BPND change relative to control: -10%
  SRTM BPND: 0.26±0.02
  SRTM BPND change relative to control: –7%
Modified Lassen plot
  part of cerebellar VT potentially displaceable (D2/3R specific binding): 11–26%
  part of striatal VT potentially displaceable (D2/3R specific binding): 41–55%
Range depending on the estimation method
  Striatal BPND relative to cerebellum: 0.51–0.63

Reference: PMC4512978, “Synthesis and evaluation in rats of homologous series of [^18F]-labeled dopamine D2/3 receptor agonists based on the 2-aminomethylchroman scaffold as potential PET tracers” (EJNMMI Research, 2015)
